Common to all, as to type: cell-based, human
The subject of one experiment is embryoid bodies (EBs). Nature of the experiment: Beating frequency of embryoid bodies from CT or RA differentiations. Conditions: RA-treated EBs, N=16, 37 degrees; control 45/min. The text has this:
EMBO Molecular Medicine Peer Review Process File - EMM-2014-04757
Please, discuss this finding.
The reviewer raises an important point and we have now discussed this finding on page-17 of the
the atrial-selective ion channel gene, KCNA5. These experiments also established that KCNJ3 and
KCNJ5 are regulated by COUP-TFII.
KCNJ3 and KCNJ5 in atrial CMs. Future studies aimed at dissecting the roles of COUP-TFI and
COUP-TFII during atrial differentiation are required to understand whether these genes act in
It also remains to be tested if
loss of COUP-TFI can be rescued by COUP-TFII and vice versa. However, since myocardial
ablation of COUP-TFII in the mouse results in a severe phenotype (25), it seems unlikely that
COUP-TFI can account for loss of COUP-TFII. Nonetheless, it is likely that deletion of both COUP-
TFI and COUP-TFII might result in a more severe phenotype”.
On page 5 a Fig S1G is introduced; this should be Fig S1F
This was an error, which has now been corrected.
Fig S2 is not introduced in the main text.
We apologize for the missing text describing Fig. S2. This is now included on page 6 of the revised
Fig 5 panel G label must be corrected. […]
a platform maintained at 37 degrees. We determined the beating frequency of N=16 EBs each. […]
rates recorded were 45/min in control EBs and 60/min in RA-treated EBs (Error bars represent […]

The subject of another experiment is COUP-TFI (NR2F1). Nature of the experiment: qPCR of COUP-TFI after RA treatment. The note with it: day 31 GFP+ CMs, RA-treated vs control differentiation. On the procedure: (§1) In order to determine the dynamics of COUP-TF expression following RA treatment, expression levels of both COUP-TFI and II were analyzed by qPCR at different time points and compared to control EBs. COUP-TFs were induced within 24 h of treatment with RA followed by dramatic increase in expression thereafter. […] The expression of COUP-TFs was maintained in differentiated CMs at day 31. COUP-TFI was expressed 20-fold higher, and COUP-TFII was enriched over 30-fold in hESC-atrial CMs compared to hESC-ventricular CMs (Fig4A and B). Antibodies selectively binding to COUP-TFI or COUP-TFII were used to verify the expression of these proteins. […]
(§2) atRA (Sigma) was diluted in DMSO to make a solution of 50 mmol/L which was further diluted in distilled water to have a stock solution of 0.0001 mol/L. atRA was used in a final concentration of 1 µmol/L in BPEL medium to direct atrial […]
(§3) Gene expression was determined on the HumanHT-12 v4 Expression BeadChip at ServiceXS, Leiden, The Netherlands. […]
(§4) For assessing gene expression by qPCR, cDNA was synthesized from approximately 1µ g of RNA obtained from three independent differentiations (iScript cDNA Synthesis Kit, BIO-RAD). Target identification was performed using SYBR Green (Applied Biosystems, Life technologies) and detected by CFX96 Real-Time PCR system (Bio-Rad). […]
Background: In qPCR the cycle at which signal appears reflects the starting amount.

In another experiment the test system is COUP-TFII (NR2F2). Put plainly: qPCR of COUP-TFII after RA treatment. Conditions: day 31 GFP+ CMs, RA-treated vs control differentiation. On the procedure: as §1, §2, §3, §4

The text below walks through data of paper PMC4403042, “Atrial-like cardiomyocytes from human pluripotent stem cells are a robust preclinical model for assessing atrial-selective pharmacology” (EMBO Molecular Medicine, 2015).

Consider `CC1=C(/C=C/C(C)=C/C=C/C(C)=C/C(=O)O)C(C)(C)CCC1` [RA, all-trans retinoic acid], for which, in the experiment on embryoid bodies (EBs), the “beating frequency of EBs” value amounted to 60 min⁻¹. In addition, the “COUP-TFI mRNA, hESC-atrial vs hESC-ventricular CMs” value with COUP-TFI (NR2F1) is 20 fold. In the experiment with COUP-TFII (NR2F2), the “COUP-TFII mRNA, hESC-atrial vs hESC-ventricular CMs” value is on record as “over 30 fold”.
